Test results: ChEMBL document CHEMBL4390652, “Design, biological evaluation and X-ray crystallography of nanomolar multifunctional ligands targeting simultaneously acetylcholinesterase and glycogen synthase kinase-3” (Eur J Med Chem, 2019)

Assays:
[1] = molecular target: Serine/threonine-protein kinase Nek1 (Homo sapiens) (UniProt Q96PY6); test: Binding affinity to wild-type human partial length NEK1 (M1 to K278 residues) expressed in bacterial expression system assessed as residual binding level at 10 uM by Kinomescan method relative to control
[2] = system: Tyrosine-protein kinase ABL1 (Homo sapiens), P00519 [F317L]; test: Binding affinity to human non-phosphorylated ABL1 F317L mutant (S229 to K512 residues) expressed in mammalian expression system assessed as residual binding level at 10 uM by Kinomescan method relative to control
[3] = molecular target: Tyrosine-protein kinase ABL2 (Homo sapiens) (UniProt P42684); test: Binding affinity to wild-type human ABL2 (A248 to G542 residues) expressed in bacterial expression system assessed as residual binding level at 10 uM by Kinomescan method relative to control
Sequence of Tyrosine-protein kinase ABL2 (Homo sapiens) (P42684 whole entry, the tested form may be a part): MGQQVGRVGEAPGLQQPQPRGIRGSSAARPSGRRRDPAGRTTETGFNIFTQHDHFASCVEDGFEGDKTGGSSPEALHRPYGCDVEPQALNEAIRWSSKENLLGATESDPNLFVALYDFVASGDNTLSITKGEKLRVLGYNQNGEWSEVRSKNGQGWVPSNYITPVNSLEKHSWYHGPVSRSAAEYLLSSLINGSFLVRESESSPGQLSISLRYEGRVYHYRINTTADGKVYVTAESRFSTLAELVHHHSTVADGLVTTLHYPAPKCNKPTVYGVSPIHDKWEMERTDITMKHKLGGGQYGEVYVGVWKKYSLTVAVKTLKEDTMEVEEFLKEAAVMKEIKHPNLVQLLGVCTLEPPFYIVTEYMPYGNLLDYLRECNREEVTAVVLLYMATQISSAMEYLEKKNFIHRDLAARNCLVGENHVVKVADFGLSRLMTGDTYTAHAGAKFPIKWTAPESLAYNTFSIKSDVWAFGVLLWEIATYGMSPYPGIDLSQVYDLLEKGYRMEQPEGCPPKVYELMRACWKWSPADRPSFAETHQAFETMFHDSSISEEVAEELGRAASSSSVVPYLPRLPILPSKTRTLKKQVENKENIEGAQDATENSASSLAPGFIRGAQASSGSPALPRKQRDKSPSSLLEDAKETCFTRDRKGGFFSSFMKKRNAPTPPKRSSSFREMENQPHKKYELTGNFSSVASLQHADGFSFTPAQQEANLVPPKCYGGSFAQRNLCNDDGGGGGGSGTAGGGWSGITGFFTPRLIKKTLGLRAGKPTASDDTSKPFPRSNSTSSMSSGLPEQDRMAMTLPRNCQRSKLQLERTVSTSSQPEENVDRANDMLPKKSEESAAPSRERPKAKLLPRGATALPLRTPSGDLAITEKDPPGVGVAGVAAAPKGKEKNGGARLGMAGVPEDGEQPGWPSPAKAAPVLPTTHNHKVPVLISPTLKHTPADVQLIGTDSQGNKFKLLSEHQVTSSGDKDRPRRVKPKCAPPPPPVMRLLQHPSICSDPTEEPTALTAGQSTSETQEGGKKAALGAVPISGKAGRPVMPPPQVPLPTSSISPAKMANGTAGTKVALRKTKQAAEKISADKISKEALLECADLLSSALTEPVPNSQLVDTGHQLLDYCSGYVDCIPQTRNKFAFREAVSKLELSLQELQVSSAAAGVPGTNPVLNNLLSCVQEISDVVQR

[4] = molecular target: RAC-beta serine/threonine-protein kinase (Homo sapiens) (UniProt P31751); test: Binding affinity to wild-type human partial length AKT2 expressed in bacterial expression system assessed as residual binding level at 10 uM by Kinomescan method relative to control
[5] = molecular target: Mitogen-activated protein kinase kinase kinase 9 (Homo sapiens) (UniProt P80192); test: Binding affinity to wild-type human partial length MLK1 (V88 to W426 residues) expressed in bacterial expression system assessed as residual binding level at 10 uM by Kinomescan method relative to control
[6] = molecular target: Muscle, skeletal receptor tyrosine-protein kinase (Homo sapiens) (UniProt O15146); test: Binding affinity to wild-type human partial length MUSK (M553 to V869 residues) expressed in bacterial expression system assessed as residual binding level at 10 uM by Kinomescan method relative to control
[7] = molecular target: Testis-specific serine/threonine-protein kinase 1 (Homo sapiens) (UniProt Q9BXA7); test: Binding affinity to wild-type human full length TSSK1B (M1 to Q367 residues) expressed in bacterial expression system assessed as residual binding level at 10 uM by Kinomescan method relative to control
[8] = system: Proto-oncogene tyrosine-protein kinase receptor Ret (Homo sapiens), P07949 [V804L]; test: Binding affinity to human partial length RET V804L mutant (E713 to D1014 residues) expressed in bacterial expression system assessed as residual binding level at 10 uM by Kinomescan method relative to control
[9] = molecular target: Dual specificity protein kinase CLK3 (Homo sapiens) (UniProt P49761); test: Binding affinity to wild-type human full length CLK3 (M1 to R490 residues) expressed in bacterial expression system assessed as residual binding level at 10 uM by Kinomescan method relative to control
Sequence of Dual specificity protein kinase CLK3 (Homo sapiens) (P49761 whole entry, looked up, the tested form may be a part): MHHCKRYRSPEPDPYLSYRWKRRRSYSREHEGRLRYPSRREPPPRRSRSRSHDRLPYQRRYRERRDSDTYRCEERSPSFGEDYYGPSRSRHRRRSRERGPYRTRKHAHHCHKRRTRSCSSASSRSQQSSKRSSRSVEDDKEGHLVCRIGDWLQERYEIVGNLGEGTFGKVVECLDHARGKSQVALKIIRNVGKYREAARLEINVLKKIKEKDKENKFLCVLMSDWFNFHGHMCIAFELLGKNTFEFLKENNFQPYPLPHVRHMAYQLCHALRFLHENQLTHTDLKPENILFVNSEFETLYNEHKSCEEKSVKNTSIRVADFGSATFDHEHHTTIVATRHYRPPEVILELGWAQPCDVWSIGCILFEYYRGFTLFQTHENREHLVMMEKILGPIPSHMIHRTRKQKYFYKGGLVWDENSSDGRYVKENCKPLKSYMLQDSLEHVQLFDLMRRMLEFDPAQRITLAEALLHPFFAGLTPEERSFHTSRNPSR

[10] = system: MDR1; test: in vitro; details: dog, MDCK-MDR1
Description: Apparent permeability across basolateral to apical side in MDCK2-MDR1 cells by HPLC analysis

[11] = molecular target: Homeodomain-interacting protein kinase 4 (Homo sapiens) (UniProt Q8NE63); test: Binding affinity to wild-type human partial length HIPK4 (M1 to V384 residues) expressed in bacterial expression system assessed as residual binding level at 10 uM by Kinomescan method relative to control
Sequence of Homeodomain-interacting protein kinase 4 (Homo sapiens) (Q8NE63 whole entry, the tested form may be a part): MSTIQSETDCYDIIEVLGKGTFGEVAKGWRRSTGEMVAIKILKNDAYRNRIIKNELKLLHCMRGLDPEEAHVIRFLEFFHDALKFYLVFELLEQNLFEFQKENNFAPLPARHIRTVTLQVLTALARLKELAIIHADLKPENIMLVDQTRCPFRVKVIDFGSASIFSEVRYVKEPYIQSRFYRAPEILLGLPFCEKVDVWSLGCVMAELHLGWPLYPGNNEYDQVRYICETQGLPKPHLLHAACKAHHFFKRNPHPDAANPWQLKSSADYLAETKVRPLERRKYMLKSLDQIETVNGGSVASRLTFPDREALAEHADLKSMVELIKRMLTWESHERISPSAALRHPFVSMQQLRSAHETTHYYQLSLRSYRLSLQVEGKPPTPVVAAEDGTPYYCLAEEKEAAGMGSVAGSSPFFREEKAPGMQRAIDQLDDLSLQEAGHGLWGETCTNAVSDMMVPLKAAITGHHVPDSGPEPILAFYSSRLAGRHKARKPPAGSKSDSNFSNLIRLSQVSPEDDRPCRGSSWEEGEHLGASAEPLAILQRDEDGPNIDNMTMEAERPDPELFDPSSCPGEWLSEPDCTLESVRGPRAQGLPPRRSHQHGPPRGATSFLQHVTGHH

[12] = molecular target: Fibroblast growth factor receptor 1 (Homo sapiens) (UniProt P11362); test: Binding affinity to wild-type human partial length FGFR1 (P357 to V669 residues) expressed in bacterial expression system assessed as residual binding level at 10 uM by Kinomescan method relative to control
[13] = system: Receptor-type tyrosine-protein kinase FLT3 (Homo sapiens), P36888 [D835V]; test: Binding affinity to human partial length FLT3 D835V mutant (V592 to Y969 residues) expressed in bacterial expression system assessed as residual binding level at 10 uM by Kinomescan method relative to control
[14] = molecular target: Vascular endothelial growth factor receptor 1 (Homo sapiens) (UniProt P17948); test: Binding affinity to wild-type human partial length FLT1 (R781 to F1239 residues) expressed in bacterial expression system assessed as residual binding level at 10 uM by Kinomescan method relative to control
[15] = molecular target: High affinity nerve growth factor receptor (Homo sapiens) (UniProt P04629); test: Binding affinity to wild-type human partial length TRKA (G475 to G790 residues) expressed in mammalian expression system assessed as residual binding level at 10 uM by Kinomescan method relative to control
Sequence of High affinity nerve growth factor receptor (Homo sapiens) (P04629 33-796 limits assumed): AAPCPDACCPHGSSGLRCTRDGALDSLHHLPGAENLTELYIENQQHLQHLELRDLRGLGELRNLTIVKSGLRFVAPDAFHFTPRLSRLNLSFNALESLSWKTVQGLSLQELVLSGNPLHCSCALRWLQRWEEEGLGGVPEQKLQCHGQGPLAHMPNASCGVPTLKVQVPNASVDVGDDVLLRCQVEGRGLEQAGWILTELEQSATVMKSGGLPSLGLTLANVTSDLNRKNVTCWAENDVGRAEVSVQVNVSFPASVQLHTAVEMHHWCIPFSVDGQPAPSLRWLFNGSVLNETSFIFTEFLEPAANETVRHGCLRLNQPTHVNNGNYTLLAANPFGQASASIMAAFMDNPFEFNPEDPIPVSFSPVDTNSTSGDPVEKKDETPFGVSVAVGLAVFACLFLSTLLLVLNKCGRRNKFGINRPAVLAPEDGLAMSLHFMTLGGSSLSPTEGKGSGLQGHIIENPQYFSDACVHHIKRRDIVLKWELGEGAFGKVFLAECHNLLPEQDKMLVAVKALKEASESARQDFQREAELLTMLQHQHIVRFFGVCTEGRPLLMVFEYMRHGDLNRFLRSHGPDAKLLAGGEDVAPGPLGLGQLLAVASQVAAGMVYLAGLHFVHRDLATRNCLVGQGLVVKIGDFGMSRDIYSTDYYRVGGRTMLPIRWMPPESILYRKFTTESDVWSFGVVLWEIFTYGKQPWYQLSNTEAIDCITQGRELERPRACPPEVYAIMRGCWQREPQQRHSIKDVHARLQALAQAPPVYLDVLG

[16] = molecular target: Serine/threonine-protein kinase ULK2 (Homo sapiens) (UniProt Q8IYT8); test: Binding affinity to wild-type human partial length ULK2 (M1 to S301 residues) expressed in mammalian expression system assessed as residual binding level at 10 uM by Kinomescan method relative to control
Sequence of Serine/threonine-protein kinase ULK2 (Homo sapiens) (Q8IYT8 whole entry, the tested form may be a part): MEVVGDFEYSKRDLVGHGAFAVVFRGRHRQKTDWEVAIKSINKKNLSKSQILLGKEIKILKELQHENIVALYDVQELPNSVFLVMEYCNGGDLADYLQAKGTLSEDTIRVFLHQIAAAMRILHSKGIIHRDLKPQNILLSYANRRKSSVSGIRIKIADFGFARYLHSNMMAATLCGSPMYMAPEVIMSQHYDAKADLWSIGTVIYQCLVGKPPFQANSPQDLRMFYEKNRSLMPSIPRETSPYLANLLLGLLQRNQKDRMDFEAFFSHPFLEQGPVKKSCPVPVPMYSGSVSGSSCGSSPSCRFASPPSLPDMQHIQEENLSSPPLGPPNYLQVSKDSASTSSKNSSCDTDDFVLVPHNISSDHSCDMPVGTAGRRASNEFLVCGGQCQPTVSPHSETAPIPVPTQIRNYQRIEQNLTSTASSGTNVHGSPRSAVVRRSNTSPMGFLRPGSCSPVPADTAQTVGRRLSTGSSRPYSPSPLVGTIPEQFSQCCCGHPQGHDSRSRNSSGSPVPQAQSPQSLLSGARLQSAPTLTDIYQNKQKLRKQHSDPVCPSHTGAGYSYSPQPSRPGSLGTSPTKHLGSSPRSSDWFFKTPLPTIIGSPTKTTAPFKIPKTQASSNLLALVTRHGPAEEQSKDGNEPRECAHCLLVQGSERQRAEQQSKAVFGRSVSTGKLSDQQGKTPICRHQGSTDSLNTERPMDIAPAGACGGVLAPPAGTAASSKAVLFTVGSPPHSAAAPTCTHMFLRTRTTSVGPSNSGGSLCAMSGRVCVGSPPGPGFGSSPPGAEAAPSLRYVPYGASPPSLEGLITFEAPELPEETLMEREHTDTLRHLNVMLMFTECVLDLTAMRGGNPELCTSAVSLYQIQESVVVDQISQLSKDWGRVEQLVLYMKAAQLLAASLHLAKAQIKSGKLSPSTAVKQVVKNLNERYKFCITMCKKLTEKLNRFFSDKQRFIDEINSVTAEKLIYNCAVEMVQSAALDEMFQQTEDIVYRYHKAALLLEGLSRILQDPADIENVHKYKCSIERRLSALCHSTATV

[17] = system: Mast/stem cell growth factor receptor Kit (Homo sapiens), P10721 [D816H]; test: Binding affinity to human partial length KIT D816H mutant (I571 to D952 residues) expressed in mammalian expression system assessed as residual binding level at 10 uM by Kinomescan method relative to control
Sequence of Mast/stem cell growth factor receptor Kit (Homo sapiens), P10721 [D816H] (P10721 whole entry D816H, the tested form may be a part): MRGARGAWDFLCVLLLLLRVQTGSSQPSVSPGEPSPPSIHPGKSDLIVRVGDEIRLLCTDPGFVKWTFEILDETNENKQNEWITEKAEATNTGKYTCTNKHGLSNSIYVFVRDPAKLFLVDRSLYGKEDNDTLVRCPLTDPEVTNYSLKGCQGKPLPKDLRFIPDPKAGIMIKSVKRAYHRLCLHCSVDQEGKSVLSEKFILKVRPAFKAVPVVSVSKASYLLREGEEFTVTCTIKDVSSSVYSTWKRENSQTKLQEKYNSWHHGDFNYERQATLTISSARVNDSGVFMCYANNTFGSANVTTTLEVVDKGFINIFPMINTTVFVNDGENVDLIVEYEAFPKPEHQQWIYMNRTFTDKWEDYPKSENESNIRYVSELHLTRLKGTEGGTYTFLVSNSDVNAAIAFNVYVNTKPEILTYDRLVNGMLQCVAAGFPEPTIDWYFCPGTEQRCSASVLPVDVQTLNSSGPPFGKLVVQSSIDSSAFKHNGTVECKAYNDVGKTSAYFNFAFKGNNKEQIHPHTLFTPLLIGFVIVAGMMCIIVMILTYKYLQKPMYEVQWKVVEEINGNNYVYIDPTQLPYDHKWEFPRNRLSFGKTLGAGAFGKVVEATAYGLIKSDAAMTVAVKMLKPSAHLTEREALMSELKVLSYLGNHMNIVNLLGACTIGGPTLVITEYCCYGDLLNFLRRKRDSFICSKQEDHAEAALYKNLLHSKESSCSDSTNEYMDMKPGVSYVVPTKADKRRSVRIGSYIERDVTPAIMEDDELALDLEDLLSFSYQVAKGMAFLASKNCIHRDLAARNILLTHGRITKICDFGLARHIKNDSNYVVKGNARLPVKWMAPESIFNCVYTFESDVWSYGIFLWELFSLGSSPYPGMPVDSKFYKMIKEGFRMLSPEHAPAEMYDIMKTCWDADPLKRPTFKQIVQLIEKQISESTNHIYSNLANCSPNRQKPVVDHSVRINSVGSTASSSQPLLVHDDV

[18] = molecular target: LIM domain kinase 1 (Homo sapiens) (UniProt P53667); test: Binding affinity to wild-type human full length LIMK1 (M1 to D647 residues) expressed in bacterial expression system assessed as residual binding level at 10 uM by Kinomescan method relative to control
[19] = molecular target: Serine/threonine-protein kinase pim-2 (Homo sapiens) (UniProt Q9P1W9); test: Binding affinity to wild-type human partial length PIM2 (M1 to E291 residues) expressed in bacterial expression system assessed as residual binding level at 10 uM by Kinomescan method relative to control
[20] = system: Epidermal growth factor receptor (Homo sapiens), P00533 [L858R]; test: Binding affinity to human partial length EGFR L858R mutant (R669 to V1011 residues) expressed in bacterial expression system assessed as residual binding level at 10 uM by Kinomescan method relative to control
[21] = molecular target: Serine/threonine-protein kinase haspin (Homo sapiens) (UniProt Q8TF76); test: Binding affinity to wild-type human partial length HASPIN (I452 to K798 residues) expressed in mammalian expression system assessed as residual binding level at 10 uM by Kinomescan method relative to control
[22] = system: Tyrosine-protein kinase ABL1 (Homo sapiens), P00519 [Q252H]; test: Binding affinity to human non-phosphorylated ABL1 Q252H mutant (S229 to K512 residues) expressed in mammalian expression system assessed as residual binding level at 10 uM by Kinomescan method relative to control
[23] = molecular target: Mitogen-activated protein kinase 9 (Homo sapiens) (UniProt P45984); test: Binding affinity to wild-type human full length JNK2 (M1 to Q382 residues) expressed in mammalian expression system assessed as residual binding level at 10 uM by Kinomescan method relative to control
[24] = molecular target: Casein kinase I isoform epsilon (Homo sapiens) (UniProt P49674); test: Binding affinity to wild-type human full length CSNK1E (M1 to K416 residues) expressed in bacterial expression system assessed as residual binding level at 10 uM by Kinomescan method relative to control
[25] = molecular target: Casein kinase I isoform gamma-3 (Homo sapiens) (UniProt Q9Y6M4); test: Binding affinity to wild-type human full length CSNK1G3 (M1 to K447 residues) expressed in bacterial expression system assessed as residual binding level at 10 uM by Kinomescan method relative to control

Question: Which results are given for `O=C(Nc1cc(-c2cn(CCNc3c4c(nc5ccccc35)CCCC4)nn2)ccn1)Nc1cccc2c1C1CCCCN1C2=O` (racemic)?
Answer: Activity [1]: 80%; Activity [2]: 78%; Activity [3]: 22%; Activity [4]: 80%; Activity [5]: 38%; Activity [6]: 49%; Activity [7]: 47%; Activity [8]: 16%; Activity [9]: 100%; Papp B→A [10]: 168 nm/s; Activity [11]: 84%; Activity [12]: 27%; Activity [13]: 0.04%; Activity [14]: 1.6%; Activity [15]: 8.6%; Activity [16]: 16%; Activity [17]: 2.2%; Activity [18]: 100%; Activity [19]: 16%; Activity [20]: 80%; Activity [21]: 3.9%; Activity [22]: 4.5%; Activity [23]: 2.6%; Activity [24]: 0.15%; Activity [25]: 80%
